Assay results from patent publication US8138186B2, “Pyrazole derivatives as sigma receptors antagonists” (Laboratorios Del Dr. Esteve, S.A., priority 2006, dated 2012).
Counter-ions that a name gives are not always drawn.

Tests used:
σ1-receptor = σ1-receptor (Cavia porcellus, UniProt Q60492); test: σ1-receptor binding assay, [3H](+)-pentazocine, brain membranes; conditions: [3H](+)-pentazocine 0.5 nM, guinea pig brain membranes; for % Binding σ1 10^−7M: compound 10^−7M; for % Binding σ1 10^−8M: compound 10^−8M
Sequence of σ1-receptor (Q60492 whole entry): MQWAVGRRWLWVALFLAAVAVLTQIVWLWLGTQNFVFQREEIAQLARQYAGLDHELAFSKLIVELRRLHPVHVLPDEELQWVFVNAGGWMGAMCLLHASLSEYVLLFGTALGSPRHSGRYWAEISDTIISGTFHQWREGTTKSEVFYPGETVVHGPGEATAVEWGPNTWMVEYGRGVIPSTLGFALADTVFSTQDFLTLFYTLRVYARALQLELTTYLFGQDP
Protocol: Brain membrane preparation and binding assays for the σ1-receptor were performed as described (DeHaven-Hudkins et al., 1992) with some modifications. In brief, guinea pig brains were homogenized in 10 vols. (w/v) of Tris-HCl 50 mM 0.32 M sucrose, pH 7.4, with a Kinematica Polytron PT 3000 at 15000 r.p.m. for 30 s. The homogenate was centrifuged at 1000 g for 10 min at 4° C. and the supernatants collected and centrifuged again at 48000 g for 15 min at 4° C. The pellet was resuspended in 10 volumes of Tris-HCl buffer (50 mM, pH 7.4), incubated at 37° C. for 30 min, and centrifuged at 48000 g for 20 min at 4° C. Following this, the pellet was resuspended in fresh Tris-HCl buffer (50 mM, pH 7.4) and stored on ice until use.
Each assay tube contained 10 μL of [^3H](+)-pentazocine (final concentration of 0.5 nM), 900 μL of the tissue suspension to a final assay volume of 1 mL and a final tissue concentration of approximately 30 mg tissue net weight/mL. […] All tubes were incubated at 37° C. for 150 min before termination of the reaction by rapid filtration over Schleicher & Schuell GF 3362 glass fibre filters [previously soaked in a solution of 0.5% polyethylenimine for at least 1 h]. Filters were then washed with four times with 4 mL of cold Tris-HCl buffer (50 mM, pH 7.4). Following addition of scintillation cocktail, the samples were allowed to equilibrate overnight. The amount of bound radioactivity was determined by liquid scintillation spectrometry using a Wallac Winspectral 1414 liquid scintillation counter.

[1] = cited from earlier work
sigma (σ-2) site = sigma (σ-2) site (Homo sapiens, UniProt Q5BJF2); conditions: cited from earlier work
Sequence of sigma (σ-2) site (Q5BJF2 whole entry): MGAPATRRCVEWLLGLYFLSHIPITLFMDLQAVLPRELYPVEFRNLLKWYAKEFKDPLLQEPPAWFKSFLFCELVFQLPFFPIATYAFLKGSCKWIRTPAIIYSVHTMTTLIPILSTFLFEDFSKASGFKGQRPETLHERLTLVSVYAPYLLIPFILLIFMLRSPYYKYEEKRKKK

sigma 1 (σ-1) site = sigma 1 (σ-1) site (Homo sapiens, UniProt Q99720); conditions: cited from earlier work
Sequence of sigma 1 (σ-1) site (Q99720 whole entry): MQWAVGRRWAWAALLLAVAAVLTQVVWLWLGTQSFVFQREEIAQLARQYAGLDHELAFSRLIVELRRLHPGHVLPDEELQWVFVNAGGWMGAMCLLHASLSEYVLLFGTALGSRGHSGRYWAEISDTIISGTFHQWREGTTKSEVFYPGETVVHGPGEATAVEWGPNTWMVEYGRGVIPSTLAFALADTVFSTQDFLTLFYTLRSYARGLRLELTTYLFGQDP

Compound	melting point	% Binding σ1 10^−7M (σ1-receptor)	% Binding σ1 10^−8M (σ1-receptor)	also measured
CN1CCN(CC(O)COc2ccn(-c3ccc(Cl)c(Cl)c3)n2)CC1.O=C(O)C(=O)O (stereo not shown)	189 to 192 °C	–	–	–
OC(COc1ccn(-c2ccc(Cl)c(Cl)c2)n1)CN1CCOCC1 (stereo not shown) [Example 1, 1-(1-(3,4-dichlorophenyl)-1H-pyrazol-3-yloxy)-3-morpholinopropan-2-ol oxalate]	–	70.3%	22.2%	–
O=C(O)C(=O)O.OC(COc1ccn(-c2ccc(Cl)c(Cl)c2)n1)CN1CCCCC1 (stereo not shown) [Example 2, 1-(1-(3,4-dichlorophenyl)-1H-pyrazol-3-yloxy)-3-(piperidin-1-yl)propan-2-ol oxalate]	116 to 119 °C	72.2%	4.2%	–
O=C(O)C(=O)O.OC(COc1ccn(-c2ccc(Cl)c(Cl)c2)n1)CN1CCCC1 (stereo not shown) [Example 3, 1-(1-(3,4-dichlorophenyl)-1H-pyrazol-3-yloxy)-3-(pyrrolidin-1-yl)propan-2-ol oxalate]	–	55.9%	32.6%	–
Clc1ccc(-n2ccc(OCCOCCN3CCCCC3)n2)cc1Cl [Example 6, 1-(2-(2-(1-(3,4-dichlorophenyl)-1H-pyrazol-3-yloxy)ethoxy)ethyl)piperidine]	–	82.8%	23.7%	–
Clc1ccc(-n2ccc(OCCOCCN3CCOCC3)n2)cc1Cl.O=C(O)C(=O)O [Example 7, 4-(2-(2-(1-(3,4-dichlorophenyl)-1H-pyrazol-3-yloxy)ethoxy)ethyl)morpholine oxalate]	154 to 156 °C	61.6%	25.8%	–
C[C@@H]1CN(CCCn2c3ccccc3c3ccccc32)C[C@H](C)N1 [rimcazole]	–	–	–	clinical effects in the treatment of psychosis [1]: shows effects in the treatment of psychosis
SKF 10047	–	–	–	affinity for the sigma (σ-2) site (sigma (σ-2) site): micromolar affinity; affinity for the sigma 1 (σ-1) site (sigma 1 (σ-1) site): nanomolar affinity
